# Biological target: T1, Tiki1 (Xenopus tropicalis, UniProt F6PTN1)
# T1 construct: Thus the endogenous Tiki1 in the Organizer acts in both Wnt-producing and Wnt-responding cells; endogenous in cells; host or cells: Xenopus embryos (dorsal blastomeres / organizer)
# T1 sequence (F6PTN1 24-480): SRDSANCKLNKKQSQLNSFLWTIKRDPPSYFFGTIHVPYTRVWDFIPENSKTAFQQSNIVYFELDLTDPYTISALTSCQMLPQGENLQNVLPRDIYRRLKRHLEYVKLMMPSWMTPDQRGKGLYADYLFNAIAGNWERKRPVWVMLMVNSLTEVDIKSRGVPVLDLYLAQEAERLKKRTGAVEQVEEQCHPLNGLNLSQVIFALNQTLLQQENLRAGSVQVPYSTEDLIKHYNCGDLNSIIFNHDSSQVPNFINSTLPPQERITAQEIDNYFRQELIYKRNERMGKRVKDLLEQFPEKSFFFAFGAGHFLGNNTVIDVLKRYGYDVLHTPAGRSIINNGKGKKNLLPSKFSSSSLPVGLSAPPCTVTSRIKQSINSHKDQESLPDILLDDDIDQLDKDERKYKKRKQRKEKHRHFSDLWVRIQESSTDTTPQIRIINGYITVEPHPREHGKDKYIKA
# Assay: Whole mount in situ hybridization of organizer gene expression in MO-injected embryos (FIGS. 3D and 3F)
# Type: in vivo
# Protocol: (D) Tiki1 is required for the head organizer. Mid-gastrula embryos (stage 10.5-11) were examined by whole mount in situ hybridization.
# (F) Tiki1MO reduces Goosecoid expression in prechordal plate at stage 13. 20 ng of control MO, Tiki1MO or Tiki1MO plus 50 pg of HA*Tiki1 mRNA were injected into two dorsal blastomeres at the 8-cell stage. Injected embryos were subjected to whole mount in situ hybridization with the Gsc probe at stage 13 (dorsal view with anterior up).
# Procedures for embryo manipulation, reverse transcription PCR and in situ hybridization were performed as previously described (Tamai et al., 2000). The arrayed Xenopus tropicalis full length cDNAs (Voigt et al., 2005) were used for the screening as performed previously (Kato et al., 2002). cDNA pools (in the CS107 vector) that contain 96 independent clones were transcribed in vitro using SP6 polymerase, and the resulting mRNA pools were injected into the dorsal side of the embryo at 4-cell stage at the dose of 10 ng RNA/embryo. Injected embryos were scored at stage 30-31 for enlarged or diminished anterior development. The positive pools were divided into smaller pools and the same process was repeated till a single cDNA was identified.
# The following morpholino oligonucleotides were used: Tiki1 MO: 5′-[…]-3′ (SEQ ID NO:33); standard control MO: 5′-[…]-3′ (SEQ ID NO:34) (Gene Tools, LLC). RT-PCR primers for XTiki1: Forward, 5′-[…]-3′(SEQ ID NO:35), Reverse, 5′-[…]-3′(SEQ ID NO:36); human TIKI1: Forward, 5′-[…]-3′(SEQ ID NO:37), Reverse, 5′-[…]-3′(SEQ ID NO:38); human TIKI2: Forward, 5′-[…]-3′(SEQ ID NO:39), Reverse, 5′-[…]-3′(SEQ ID NO:40).
# Further, injection of Tiki1MO in two dorsal blastomeres of 8-cell stage embryos suppressed the expression of head organizer genes including Goosecoid (Gsc), Lim1, Otx2, and Dkk1 in gastrula stage embryos (stages 10.5-11) (FIG. 3D and Table 1). […] HA*Tiki1 mRNA injection rescued the effect of Tiki1MO on all head organizer genes examined (FIG. 3D and Table 1). […] Consistently, Tiki1 inhibited Xwnt8 posterizing effect when both were co-expressed dorsally via injected plasmids, which zygotically express Tiki1 and Xwnt8, respectively, after mid-blastula transition (FIG. 3H).
# [1] = gene Chd, stage 10.5-11, 20 ng MO
# [2] = gene Dkk1, stage 10.5-11, 20 ng MO
# [3] = gene Gsc in prechordal plate, stage 13, 20 ng MO
# [4] = gene Gsc, stage 10.5-11, 20 ng MO
# [5] = gene Lim1, stage 10.5-11, 20 ng MO
# [6] = gene Otx2, stage 10.5-11, 20 ng MO
# [7] = gene Xnot, stage 10.5-11, 20 ng MO
# [8] = gene Xnr3, stage 10.5-11, 20 ng MO
substance,measurement,setting,value
"Tiki1 MO: morpholino antisense oligonucleotide against Tiki1, 5′-CCAAATGATTACCATCATAGCTCAG-3′ (SEQ ID NO:33) (all phosphorodiamidate morpholino (PMO))","Whole embryos displaying change in gene expression: Chd Absent, Percentage (%)",[1],0%
same,"Whole embryos displaying change in gene expression: Chd NC (No Change), Percentage (%)",[1],64%
same,"Whole embryos displaying change in gene expression: Chd Reduced, Percentage (%)",[1],36%
same,"Whole embryos displaying change in gene expression: Dkk1 Absent, Percentage (%)",[2],25%
same,"Whole embryos displaying change in gene expression: Dkk1 NC (No Change), Percentage (%)",[2],35%
same,"Whole embryos displaying change in gene expression: Dkk1 Reduced, Percentage (%)",[2],40%
same,"Whole embryos displaying change in gene expression: Gsc st.13 Absent, Percentage (%)",[3],35%
same,"Whole embryos displaying change in gene expression: Gsc st.13 NC (No Change), Percentage (%)",[3],33%
same,"Whole embryos displaying change in gene expression: Gsc st.13 Reduced, Percentage (%)",[3],32%
same,"Whole embryos displaying change in gene expression: Gsc Absent, Percentage (%)",[4],0%
same,"Whole embryos displaying change in gene expression: Gsc NC (No Change), Percentage (%)",[4],34%
same,"Whole embryos displaying change in gene expression: Gsc Reduced, Percentage (%)",[4],66%
same,"Whole embryos displaying change in gene expression: Lim1 Absent, Percentage (%)",[5],28%
same,"Whole embryos displaying change in gene expression: Lim1 NC (No Change), Percentage (%)",[5],18%
same,"Whole embryos displaying change in gene expression: Lim1 Reduced, Percentage (%)",[5],54%
same,"Whole embryos displaying change in gene expression: Otx2 Absent, Percentage (%)",[6],7%
same,"Whole embryos displaying change in gene expression: Otx2 NC (No Change), Percentage (%)",[6],33%
same,"Whole embryos displaying change in gene expression: Otx2 Reduced, Percentage (%)",[6],60%
same,"Whole embryos displaying change in gene expression: Xnot Absent, Percentage (%)",[7],0%
same,"Whole embryos displaying change in gene expression: Xnot NC (No Change), Percentage (%)",[7],87%
same,"Whole embryos displaying change in gene expression: Xnot Reduced, Percentage (%)",[7],13%
same,"Whole embryos displaying change in gene expression: Xnr3 Absent, Percentage (%)",[8],0%
same,"Whole embryos displaying change in gene expression: Xnr3 NC (No Change), Percentage (%)",[8],93%
same,"Whole embryos displaying change in gene expression: Xnr3 Reduced, Percentage (%)",[8],7%

# Source: US9534059B2, “TIKI inhibitors” (Children's Medical Center Corporation, priority 2012, dated 2017)
